# Measurements published in US20250170101A1, “MONOACYLGLYCEROL LIPASE INHIBITORS AND USE THEREOF FOR THE TREATMENT AND MANAGEMENT OF PAIN AND RELATED CONDITIONS” (Psy Therapeutics, Inc., priority 2021, published 2025).
# Assay: Pharmacokinetic study of compounds in mice, Example 25
# Format: in vivo, male C57BL/6 mice
# Conditions: Brain, Oral, 5 mg/kg
# Protocol: Healthy male C57BL/6 mice (8-12 weeks old) weighing between 17 to 35 g were procured from Global, India. Temperature and humidity were maintained at 22±3° C. and 30-70%, respectively and illumination was controlled to give a sequence of 12 hr light and 12 hr dark cycle. Temperature and humidity were recorded by auto-controlled data logger system. All the animals were provided laboratory rodent diet. Reverse osmosis water treated with ultraviolet light was provided ad libitum.
# Protocol A: Twenty-four male mice were divided into two groups as; Group 1: 30 mg/kg/IP; Plasma and brain; Number of animals=12; Animal #1-12. Group 2: 30 mg/kg/PO; Plasma and brain; Number of animals=12; Animal #13-24. […] All samples were processed for analysis by protein precipitation using acetonitrile and analyzed with fit-for-purpose LC/MS/MS method (LLOQ—2.02 ng/mL for plasma and 6.06 ng/g for brain). Pharmacokinetic parameters were calculated using the non-compartmental analysis tool of Phoenix WinNonlin®.
# Protocol B: Thirty six mice were included into the study and divided in to three groups as Group 1 (n=12), Group 2 (n=12) and Group 3 (n=12) with n=2 mice per time-point design. […] Plasma and brain samples were quantified by fit-for-purpose LC-MS/MS method (LLOQ: 1.01 ng/mL for plasma and 2.02 ng/mL for brain). […]
structure (smiles),measurement,value
"O=C(c1cc(O)ccc1F)N1CC2(CC(n3cc(C(F)(F)F)c(-c4ccccc4F)n3)C2)C1 (single isomer, unassigned) [Compound 473, (2-fluoro-5-hydroxyphenyl){6-[3-(o-fluorophenyl)-4-(trifluoromethyl)-1-pyrazolyl]-2-aza-2-spiro[3.3]heptyl}methanone]",AUClast,464.42 ng·h/mL
